39 compounds from patent US7423159B2, “Agent for preventing or treating neuropathy” (Takeda Pharmaceutical Company Limited, priority 2002, dated 2008) can be followed below.

The structures appear in SMILES notation.

By melting point is commonly meant the temperature of the solid-liquid transition. As to `CCc1nc(COc2ccc(NC(=O)/C=C/c3cnn(C)c3-c3ccc(F)cc3)cc2)cs1` [Example 93, (2E)-N-{4-[(2-Ethyl-1,3-thiazol-4-yl)methoxy]phenyl}-3-[5-(4-fluorophenyl)-1-methyl-1H-pyrazol-4-yl]acrylamide], the melting point was 98 to 99 °C.

Regarding `Cn1ncc(/C=C/C(=O)Nc2ccc(C[S+]([O-])c3ccccc3)cc2)c1-c1ccc(F)cc1` (stereo not drawn) [Example 219, (2E)-3-[5-(4-Fluorophenyl)-1-methyl-1H-pyrazol-4-yl]-N-{4-[(phenylsulfinyl)methyl]phenyl}acrylamide], the melting point lay in the range of 236 to 237 °C. As for `CCOP(=O)(Cc1ccccc1NC(=O)/C=C/c1cnn(C)c1-c1ccc(F)cc1)OCC`, the figure is 168 to 169 °C; as for `COP(=O)(Cc1ccc(NC(=O)/C=C/c2cncn2-c2ccc(F)cc2)cc1)OC`, 108 to 109 °C. As for `O=C(O)Cc1ccc(NC(=O)CCc2cnn(-c3ccccc3)c2-c2ccccc2)cc1` [Example 83, (4-{[3-(1,5-diphenyl-1H-pyrazol-4-yl)propanoyl]amino}phenyl)acetic acid], the figure is 199 to 201 °C; as for `Cn1ncc(/C=C/C(=O)Nc2ccc3[nH]c(=O)oc3c2)c1-c1ccc(F)cc1` [Example 106, (2E)-3-[5-(4-Fluorophenyl)-1-methyl-1H-pyrazol-4-yl]-N-(2-oxo-2,3-dihydro-1,3-benzoxazol-6-yl)acrylamide], > 300 °C; as for `COP(=O)(Cc1ccc(NC(=O)/C=C/c2c(C)nn(C)c2-c2ccc(F)cc2)cc1)OC`, 195 to 198 °C. The compound `Cn1ncc(/C=C/C(=O)Nc2ccc(C(O)c3ccccc3)cc2)c1-c1ccc(F)cc1` (stereo not drawn) [Example 174, (2E)-3-[5-(4-Fluorophenyl)-1-methyl-1H-pyrazol-4-yl]-N-{4-[hydroxy(phenyl)methyl]phenyl}acrylamide] had a melting point of 192 to 195 °C. As to `Cc1cncn1Cc1ccc(NC(=O)/C=C/c2cnn(C)c2-c2ccc(F)cc2)cc1` [Example 201, (2E)-3-[5-(4-Fluorophenyl)-1-methyl-1H-pyrazol-4-yl]-N-{4-[(5-methyl-1H-imidazol-1-yl)methyl]phenyl}acrylamide], the melting point is 260 to 261 °C.

`COC(=O)c1ncnn1Cc1ccc(NC(=O)/C=C/c2cnn(C)c2-c2ccc(F)cc2)cc1` [Example 164, Methyl 1-[4-({(2E)-3-[5-(4-fluorophenyl)-1-methyl-1H-pyrazol-4-yl]prop-2-enoyl}amino)benzyl]-1H-1,2,4-triazole-5-carboxylate] showed a melting point of 203 to 205 °C.

In turn, `COP(=O)(Cc1ccc(NC(=O)/C=C/c2cnn(C)c2-c2ccc(Br)cc2)cc1)OC` came in with a melting point of 212 to 214 °C. In the case of `Cn1ncc(/C=C/C(=O)Nc2ccc(Cc3ccccc3)cc2)c1-c1ccc(F)cc1` [Example 175, (2E)-N-(4-Benzylphenyl)-3-[5-(4-fluorophenyl)-1-methyl-1H-pyrazol-4-yl]acrylamide] it was 226 to 227 °C; in that of `Cn1ncc(/C=C/C(=O)Nc2ccc(Cc3nc(C(N)=O)cs3)cc2)c1-c1ccc(F)cc1` [Example 132, 2-[4-({(2E)-3-[5-(4-fluorophenyl)-1-methyl-1H-pyrazol-4-yl]prop-2-enoyl}amino)benzyl]-1,3-thiazole-4-carboxamide], 159 to 160 °C; in that of `Cn1ncc(/C=C/C(=O)Nc2ccc(Cc3nnn[nH]3)cc2)c1-c1ccc(F)cc1` [Example 87, (2E)-3-[5-(4-Fluorophenyl)-1-methyl-1H-pyrazol-4-yl]-N-[4-(1H-tetrazol-5-ylmethyl)phenyl]acrylamide], 252 to 253 °C. As to `CCOP(=O)(Cc1ccc(NC(=O)/C=C\c2cnn(C)c2-c2ccc(OC)cc2)cc1)OCC`, the melting point fell in the range of 187 to 188 °C.

As to `Cn1nnnc1Cc1ccc(NC(=O)/C=C/c2cnn(C)c2-c2ccc(F)cc2)cc1` [Example 101, (2E)-3-[5-(4-Fluorophenyl)-1-methyl-1H-pyrazol-4-yl]-N-{4-[(1-methyl-1H-tetrazol-5-yl)methyl]phenyl}acrylamide], the melting point was in the range of 243 to 244 °C. In the case of `Cn1ncc(/C=C/C(=O)Nc2ccc(S(N)(=O)=O)cc2)c1-c1ccc(F)cc1` [Example 181, (2E)-N-[4-(Aminosulfonyl)phenyl]-3-[5-(4-fluorophenyl)-1-methyl-1H-pyrazol-4-yl]acrylamide] it was 300 to 305 °C (dec.). In the case of `CCOP(=O)(Cc1ccc(NC(=O)/C=C/c2cnn(C)c2-c2ccc(C(F)(F)F)cc2)cc1)OCC` it was 200 to 201 °C. As for `Cn1ncc(/C=C/C(=O)Nc2ccc(CNC(=O)OC(C)(C)C)cc2)c1-c1ccc(F)cc1` [Example 170, tert-Butyl 4-({(2E)-3-[5-(4-fluorophenyl)-1-methyl-1H-pyrazol-4-yl]prop-2-enoyl]amino)benzylcarbamate], the figure is 222 to 223 °C; as for `Cn1ncc(/C=C/C(=O)Nc2ccc(CCc3nnco3)cc2)c1-c1ccc(F)cc1` [Example 89, (2E)-3-[5-(4-Fluorophenyl)-1-methyl-1H-pyrazol-4-yl]-N-{4-[2-(1,3,4-oxadiazol-2-yl)ethyl]phenyl}acrylamide], 177 to 178 °C; as for `Cn1ncc(/C=C/C(=O)Nc2ccc(Cn3ncnn3)cc2)c1-c1ccc(F)cc1` [Example 198, (2E)-3-[5-(4-Fluorophenyl)-1-methyl-1H-pyrazol-4-yl]-N-[4-(2H-tetrazol-2-ylmethyl)phenyl]acrylamide], 210 to 211 °C.

`Cn1nnnc1SCc1ccc(NC(=O)/C=C/c2cnn(C)c2-c2ccc(F)cc2)cc1` [Example 214, (2E)-3-[5-(4-Fluorophenyl)-1-methyl-1H-pyrazol-4-yl]-N-(4-[[(1-methyl-1H-tetrazol-5-yl)thio]methyl]phenyl)acrylamide]: the melting point lay within 150 to 152 °C. In the case of `Cn1ncc(/C=C/C(=O)Nc2ccc(C[S+]([O-])C(C)(C)C)cc2)c1-c1ccc(F)cc1` (stereo not drawn) [Example 218, (2E)-N-{4-[(tert-Butylsulfinyl)methyl]phenyl}-3-[5-(4-fluorophenyl)-1-methyl-1H-pyrazol-4-yl]acrylamide] it was 242 to 243 °C; in that of `COP(=O)(Cc1ccc(NC(=O)/C=C/c2cnn(C)c2-c2ccco2)cc1)OC`, 201 to 202 °C.

Compound `CCOP(=O)(Cc1ccc(NC(=O)/C=C/c2cnn(C)c2-c2cccc3ccccc23)cc1)OCC` registered a melting point of 229 to 231 °C.

On to `Cn1ncc(/C=C/C(=O)Nc2ccc(CSc3ccccc3)cc2)c1-c1ccc(F)cc1` [Example 212, (2E)-3-[5-(4-Fluorophenyl)-1-methyl-1H-pyrazol-4-yl]-N-{4-[(phenylthio)methyl]phenyl}acrylamide], for which the melting point is 197 to 198 °C. In the case of `CSCc1ccc(NC(=O)/C=C/c2cnn(C)c2-c2ccc(F)cc2)cc1` [Example 208, (2E)-3-[5-(4-fluorophenyl)-1-methyl-1H-pyrazol-4-yl]-N-{4-[(methylthio)methyl]phenyl}acrylamide] it was 165 to 168 °C; in that of `Cn1ncc(/C=C/C(=O)Nc2ccc(CN3C(=O)CCCC3=O)cc2)c1-c1ccc(F)cc1` [Example 158, (2E)-N-{4-[(2,6-Dioxo-1-piperidinyl)methyl]phenyl}-3-[5-(4-fluorophenyl)-1-methyl-1H-pyrazol-4-yl]acrylamide], 218 to 220 °C. In the case of `Cn1ncc(/C=C/C(=O)Nc2ccc(C[S+](C)[O-])cc2)c1-c1ccc(F)cc1` (stereo not drawn) [Example 215, (2E)-3-(5-(4-fluorophenyl)-1-methyl-1H-pyrazol-4-yl)-N-(4-((methylsulfinyl)methyl)phenyl)acrylamide] it was 240 to 241 °C. As for `Cn1ncc(/C=C/C(=O)Nc2ccc(Cc3nc4ccccc4o3)cc2)c1-c1ccc(F)cc1` [Example 107, (2E)-N-[4-(1,3-Benzoxazol-2-ylmethyl)phenyl]-3-[5-(4-fluorophenyl)-1-methyl-1H-pyrazol-4-yl]acrylamide], the figure is 195 to 196 °C; as for `Cn1ncc(/C=C/C(=O)Nc2ccc(Cn3nc4ccccc4n3)cc2)c1-c1ccc(F)cc1` [Example 179, (2E)-N-[4-(2H-1,2,3-Benzotriazol-2-ylmethyl)phenyl]-3-[5-(4-fluorophenyl)-1-methyl-1H-pyrazol-4-yl]acrylamide], 222 to 223 °C. `CCOP(=O)(Cc1ccc(NC(=O)CCc2cnn(-c3ccccc3)c2-c2ccccc2)cc1)OCC` showed a melting point of 157 to 159 °C. As for `Cn1ncc(/C=C/C(=O)Nc2ccc(Cc3nccs3)cc2)c1-c1ccc(F)cc1` [Example 128, (2E)-3-[5-(4-Fluorophenyl)-1-methyl-1H-pyrazol-4-yl]-N-{4-[(1,3-thiazol-2-yl)methyl]phenyl}acrylamide], the figure is 209 to 210 °C; as for `CCOP(=O)(Cc1ccc(NC(=O)/C=C/c2nn(C)cc2-c2ccc(F)cc2)cc1)OCC`, 203 to 204 °C; as for `CC(=O)Nc1ccc(NC(=O)/C=C/c2cnn(C)c2-c2ccc(F)cc2)cc1` [Example 166, (2E)-N-[4-(Acetylamino)phenyl]-3-[5-(4-fluorophenyl)-1-methyl-1H-pyrazol-4-yl]acrylamide], 281 to 282 °C. In the case of `CCOC(=O)CCC(=O)NCc1ccc(NC(=O)/C=C/c2cnn(C)c2-c2ccc(F)cc2)cc1` [Example 188, Ethyl 4-{[4-({(2E)-3-[5-(4-fluorophenyl)-1-methyl-1H-pyrazol-4-yl]prop-2-enoyl}amino)benzyl]amino}-4-oxobutanoate] it was 195 to 197 °C. For the compound `CCOP(=O)(CCc1ccc(NC(=O)/C=C/c2cnn(C)c2-c2ccc(F)cc2)cc1)OCC`, the melting point is 157 to 158 °C. In turn, `Cn1nnnc1[S+]([O-])Cc1ccc(NC(=O)/C=C/c2cnn(C)c2-c2ccc(F)cc2)cc1` (stereo not drawn) [Example 220, (2E)-3-[5-(4-Fluorophenyl)-1-methyl-1H-pyrazol-4-yl]-N-(4-{[(1-methyl-1H-tetrazol-5-yl)sulfinyl]methyl}phenyl)acrylamide] displayed a melting point of 179 to 183 °C. As for `Cn1ncc(/C=C/C(=O)Nc2ccc(Cn3cnnn3)cc2)c1-c1ccc(F)cc1` [Example 199, (2E)-3 [5-(4-Fluorophenyl)-1-methyl-1H-pyrazol-4-yl]-N-[4-(1H-tetrazol-1-ylmethyl)phenyl]acrylamide], the figure is 233 to 234 °C.
